From patent US5660842A, “Inhibition of helicobacter” (Bristol-Myers Squibb Company, priority 1995, dated 1997)
In brackets after ≈: the same amount, converted by molar mass. Like-named read-outs stand apart in the source and are kept apart here.

How the values were obtained:
Helicobacter pylori [1] = test: Viability of H. pylori after 1 hour with FFA or MG in Brucella broth (plate count, Example 1, Table 1); type: cell-based; conditions: for Effect on test strains of H. pylori: up to 5 mM, three strains; for Reduction in number of viable H. pylori cells (CFU/mL): 1 hour, 37° C.; for Reductions in cell numbers: test strains HP-2, HP-4, HP-5, 1 hour incubation
Helicobacter pylori [2] = test: Viability of H. pylori after 1 hour in prototype nutritional compositions containing FFA or MG (Example 3, Table 6); type: cell-based, Helicobacter pylori (ATCC 43629); conditions: for Change in viable cell number: 1 hour; for Inhibition in nutritional compositions: levels as high as 20 mM; for Reductions in viability of H. pylori: 10 mM for 1 hour
Helicobacter pylori [3] = test: Minimal inhibitory concentration (MIC) for H. pylori (Example 5); type: cell-based
Helicobacter pylori [4] = type: cell-based, Helicobacter pylori (HP-2, HP-4, HP-5); conditions: for Frequency of resistance / Resistant variants of H. pylori: concentrations as low as two times the MIC; for Frequency of resistant mutants (number of spontaneous mutants): ~1 × 10^8 CFU; for Frequency of innate resistance compared with MG and FFA: H. pylori strains, Table 7
Helicobacter felis = test: H. felis infected mouse model (urease activity and histology of gastric tissue); type: in vivo, Helicobacter felis in adult mice
Description: The restricted host range of Helicobacter pylori has hampered the development of a widely accepted animal model of H. pylori infection. […] Other animal models of Helicobacter infection have been described based on bacteria similar to H. pylori that have been found in the gastric mucosa of various animals such as the ferret, cat, and monkey. One such model involves the inoculation of adult mice with Heicobacter felis (Fox, J. G., J. C. Murphy, N. S. Taylor, A. Lee, Z. Kabob, and L. Pappo., Local and systemic immune responses in murine Helicobacter felis active chronic gastritis., Infect. Immun. 1993; 61:2309-2315; Dick-Hegedus, E., and A. Lee. Use of a mouse model to examine anti-Helicobacter pylori agents., Scand. J. Gastroenterol. 1991;26:909-915). Preliminary studies were conducted to evaluate the anti-infective activity of MG and FFA against Helicobacter infection in vivo using the H. felis infected mouse model. […] Two weeks later mice were randomized into treatment groups and maintained on liquid diet alone or the same diet supplemented with C10:0 MG or C12:0 MG at a level of 1,5, or 10 mM. Gastric colonization with H. felis in mice was determined 1 and 3 weeks later by evaluation of urease activity ([…]. Barody, A. Gal, and A. Lee., Campylobacter pyloridis gastritis I: Detection of urease as a marker of bacterial colonization and gastritis. Am. J. Gastroenterol. 1987; 82: 292-296) and histopathological assessment of bacterial infection in gastric tissues.

H. pylori = conditions: reported in literature; cited from earlier work
[5] = Nutrament (Formulation II), 20 mM
[6] = Sustacal (Formulation I), 10 mM
[7] = Sustacal (Formulation I), 20 mM
[8] = Ultracal (Formulation III), 5 mM
[9] = Ultracal (Formulation III), 10 mM
[10] = Ultracal (Formulation III), 20 mM
[11] = Nutrament (Formulation II), 5 mM
[12] = Nutrament (Formulation II), 10 mM
[13] = Helicobacter pylori, Table 7, read-out: MIC

Structure (SMILES) | Change in viable cell number (Helicobacter pylori [2]; Sustacal (Formulation I), 5 mM) [LOG CFU/mL] | Change in viable cell number (Helicobacter pylori [2]; [6]) [LOG CFU/mL] | Change in viable cell number (Helicobacter pylori [2]; [8]) [LOG CFU/mL] | Change in viable cell number (Helicobacter pylori [2]; [9]) [LOG CFU/mL] | Change in viable cell number (Helicobacter pylori [2]; [10]) [LOG CFU/mL] | Reductions in cell numbers (Helicobacter pylori [1]) | Reductions in viability of H. pylori (Helicobacter pylori [2]) [fold] | Change in viable cell number (Helicobacter pylori [2]; [11]) [LOG CFU/mL] | Change in viable cell number (Helicobacter pylori [2]; [12]) [LOG CFU/mL] | Frequency of resistant mutants (number of spontaneous mutants) (Helicobacter pylori [4]; strain 43579, 2 × MIC) | Frequency of resistant mutants (number of spontaneous mutants) (Helicobacter pylori [4]; strain 43579, 5 × MIC) | Frequency of resistant mutants (number of spontaneous mutants) (Helicobacter pylori [4]; strain 43579, 10 × MIC) | Frequency of resistant mutants (number of spontaneous mutants) (Helicobacter pylori [4]; strain 43629, 2 × MIC) | Frequency of resistant mutants (number of spontaneous mutants) (Helicobacter pylori [4]; strain 43629, 5 × MIC) | Frequency of resistant mutants (number of spontaneous mutants) (Helicobacter pylori [4]; strain 43629, 10 × MIC) | Frequency of resistant mutants (number of spontaneous mutants) (Helicobacter pylori [4]; strain 49503, 2 × MIC) | Frequency of resistant mutants (number of spontaneous mutants) (Helicobacter pylori [4]; strain 49503, 5 × MIC) | Frequency of resistant mutants (number of spontaneous mutants) (Helicobacter pylori [4]; strain 49503, 10 × MIC) | further results
CCCCCCCCCC(=O)O [Capric Acid, capric acid, reference compound] | 0.00 | 0.00 | 0.03 | -0.03 | -0.33 | – | – | – | – | – | – | – | – | – | – | – | – | – | Effect on test strains of H. pylori (Helicobacter pylori [1]): None of the test strains of H. pylori were affected; Change in viable cell number (Helicobacter pylori [2]; [5]): -0.08 LOG CFU/mL; Change in viable cell number (Helicobacter pylori [2]; [7]): -0.09 LOG CFU/mL; Inhibition in nutritional compositions (Helicobacter pylori [2]): not inhibitory
CCCCCCCCCC(=O)OCC(O)CO (centres unmarked) [Monocaprin, monocaprin] | -3.78 | -3.91 | -4.40 | -4.40 | – | ≥ 10,000 fold | ≥ 1000 | -4.00 | -4.14 | < 1 | < 1 | < 1 | < 1 | < 1 | < 1 | < 1 | < 1 | < 1 | Reduction in number of viable H. pylori cells (CFU/mL) (Helicobacter pylori [1]; ATCC #43579, 1 mM): > 100,000 fold; Reduction in number of viable H. pylori cells (CFU/mL) (Helicobacter pylori [1]; ATCC #43629, 1 mM): > 60,000 fold; Reduction in number of viable H. pylori cells (CFU/mL) (Helicobacter pylori [1]; ATCC #49503, 1 mM): > 30,000 fold; MIC (Helicobacter pylori [3]; Table 7): 60.0 µg/mL (≈ 244 µM); MIC (Helicobacter pylori [3]; preliminary studies): approximately 60 mg/L; Frequency of resistance (Helicobacter pylori [4]): < 1×10^-8; Resistant variants of H. pylori (Helicobacter pylori [4]): no resistant variants of H. pylori were found; Histology score (Helicobacter felis; 10 mM in diet, three weeks): remained lower; Numbers of urease positive and histology positive mice (Helicobacter felis; diet, three weeks after initiation of treatment): comparable to the number observed in the infected control group (~80-100%); Number of urease and histology positive mice (Helicobacter felis; liquid diet with MG at 1, 5 or 10 mM, 1 week of treatment): dose-related reductions in the number of urease and histology positive mice; Reduction in H. felis infection (Helicobacter felis; second study, daily intragastric gavage 1.4 or 2.8 mg/day, 1 or 3 weeks): no significant reduction in H. felis infection; Level of infection (histology score) (Helicobacter felis; urease positive mice vs control, diet, 1 week): Lower levels of infection
Cc1ncc([N+](=O)[O-])n1CCO [metronidazole, reference compound] | – | – | – | – | – | – | – | – | – | – | – | – | 791 | < 1 | < 1 | > 1000 | 48 | < 1 | MIC (Helicobacter pylori [3]; [13]): 2 µg/mL (≈ 11.7 µM); Frequency of innate resistance compared with MG and FFA (Helicobacter pylori [4]): consistently higher; Frequency of resistant mutants (number of spontaneous mutants) (Helicobacter pylori [4]; strain 43679 (so in the source), 2 × MIC): > 1000; Frequency of resistant mutants (number of spontaneous mutants) (Helicobacter pylori [4]; strain 43679 (so in the source), 5 × MIC): 862; Frequency of resistant mutants (number of spontaneous mutants) (Helicobacter pylori [4]; strain 43679 (so in the source), 10 × MIC): 518
CCCCCCCC(=O)O [Caprylic Acid, caprylic acid, reference compound] | 0.00 | 0.00 | 0.06 | -0.20 | -0.81 | – | – | – | – | – | – | – | – | – | – | – | – | – | Effect on test strains of H. pylori (Helicobacter pylori [1]): None of the test strains of H. pylori were affected; Change in viable cell number (Helicobacter pylori [2]; [5]): -0.21 LOG CFU/mL; Change in viable cell number (Helicobacter pylori [2]; [7]): 0.02 LOG CFU/mL; Inhibition in nutritional compositions (Helicobacter pylori [2]): not inhibitory
CCCCCCCC(=O)OCC(O)CO (centres unmarked) [Monocaprylin, monocaprylin] | 0.37 | -3.44 | 0.00 | -3.64 | -4.46 | ≥ 1000 fold | ≥ 1000 | -4.23 | -4.23 | – | – | – | – | – | – | – | – | – | Reduction in number of viable H. pylori cells (CFU/mL) (Helicobacter pylori [1]; ATCC #43579, 5 mM): > 4,000 fold; Reduction in number of viable H. pylori cells (CFU/mL) (Helicobacter pylori [1]; ATCC #43629, 5 mM): > 3,000 fold; Reduction in number of viable H. pylori cells (CFU/mL) (Helicobacter pylori [1]; ATCC #49503, 5 mM): > 40,000 fold
CN(C)C1C(=O)C(C(N)=O)=C(O)C2(O)C(=O)C3=C(O)c4c(O)cccc4C(C)(O)C3CC12 (centres unmarked) [tetracycline, reference compound] | – | – | – | – | – | – | – | – | – | TNTC | TNTC | < 1 | > 1000 | 242 | < 1 | 148 | < 1 | < 1 | MIC (Helicobacter pylori [3]; [13]): 0.1 µg/mL (≈ 0.225 µM); Frequency of innate resistance compared with MG and FFA (Helicobacter pylori [4]): consistently higher
CCCCCCCCCCCC(=O)OCC(O)CO (centres unmarked) [Monolaurin, monolaurin] | -3.41 | -3.77 | -3.04 | -4.40 | – | ≥ 10,000 fold | ≥ 1000 | -4.23 | -3.87 | < 1 | < 1 | < 1 | < 1 | < 1 | < 1 | < 1 | < 1 | < 1 | Reduction in number of viable H. pylori cells (CFU/mL) (Helicobacter pylori [1]; ATCC #43579, 1 mM): > 100,000 fold; Reduction in number of viable H. pylori cells (CFU/mL) (Helicobacter pylori [1]; ATCC #43629, 1 mM): > 50,000 fold; Reduction in number of viable H. pylori cells (CFU/mL) (Helicobacter pylori [1]; ATCC #49503, 1 mM): > 30,000 fold; MIC (Helicobacter pylori [3]; Table 7): 15.0 µg/mL (≈ 54.7 µM); MIC (Helicobacter pylori [3]; preliminary studies): ~15 µg/mL (≈ 54.7 µM); Frequency of resistance (Helicobacter pylori [4]): < 1×10^-8; Resistant variants of H. pylori (Helicobacter pylori [4]): no resistant variants of H. pylori were found
CCCCC/C=C\C/C=C\C/C=C\C/C=C\CCCC(=O)O [arachidonic acid] | – | – | – | – | – | – | – | – | – | – | – | – | – | – | – | – | – | – | Inhibitory effect on H. pylori (H. pylori): inhibitory effect on H. pylori
CC/C=C\C/C=C\C/C=C\CCCCCCCC(=O)O [ω-3 linolenic acid] | – | – | – | – | – | – | – | – | – | – | – | – | – | – | – | – | – | – | Inhibitory effect on H. pylori (H. pylori): inhibitory effect on H. pylori
